In PubChem BioAssay (NCI):
Several values for one entry are separate records, joined by “and”; a condition that tells them apart may be missing. Equal entries are not always repeated.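 Where inhibition never reached the appropriate level, the endpoint shown equals the highest concentration tested. Otherwise, values were interpolated linearly from a five-concentration, 48-hour dose response in 96-well plates. Abbreviation: GI50, concentration required for 50% inhibition of growth. TGI marks complete inhibition of growth.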

Columns and labels:
Test in all cases: NCI anticancer screen, dose series, 48 h
NCI-H460 lung = tested on: NCI-H460 lung
HS 578T breast = tested on: HS 578T breast
MDA-MB-435 = tested on: MDA-MB-435
UACC-257 melanoma = tested on: UACC-257 melanoma
SK-MEL-28 melanoma = tested on: SK-MEL-28 melanoma
SF-539 CNS = tested on: SF-539 CNS
SK-MEL-2 melanoma = tested on: SK-MEL-2 melanoma
NCI-H23 lung = tested on: NCI-H23 lung
OVCAR-8 ovarian = tested on: OVCAR-8 ovarian
SK-MEL-5 melanoma = tested on: SK-MEL-5 melanoma

Row | Compound | GI50 (NCI-H460 lung) | TGI (NCI-H460 lung) [µM] | GI50 (HS 578T breast) | TGI (HS 578T breast) [µM] | GI50 (MDA-MB-435) | TGI (MDA-MB-435) [µM] | GI50 (UACC-257 melanoma) [µM] | TGI (UACC-257 melanoma) [µM] | GI50 (SK-MEL-28 melanoma) | TGI (SK-MEL-28 melanoma) [µM] | GI50 (SF-539 CNS) | TGI (SF-539 CNS) [µM] | GI50 (SK-MEL-2 melanoma) [µM] | TGI (SK-MEL-2 melanoma) [µM] | GI50 (NCI-H23 lung) | TGI (NCI-H23 lung) [µM] | GI50 (OVCAR-8 ovarian) | TGI (OVCAR-8 ovarian) [µM] | GI50 (SK-MEL-5 melanoma) | TGI (SK-MEL-5 melanoma)
1 | [2H]C([2H])([2H])NC(=O)c1nnc(NC(=O)C2CC2)cc1Nc1cccc(-c2ncn(C)n2)c1OC | > 100 µM | > 100 | 14.7 µM | > 100 | 56.7 µM | > 100 | > 100 | > 100 | > 100 µM | > 100 | 61.1 µM | > 100 | 10.6 | 83.8 | 91.9 µM | > 100 | 27.4 µM | > 100 | 50.2 µM | > 100 µM
2 | O=C(O)C[C@H](O)C[C@H](O)/C=C/c1c(C2CC2)nc2ccccc2c1-c1ccc(F)cc1 | 21.2 µM and 4.92 µM | > 100 | 6.45 µM and 2.1 µM | > 100 | 14.6 µM and 6.04 µM | > 100 | > 100 | > 100 | 27.4 µM and 7.7 µM | > 100 | 43.7 µM and 5.46 µM | > 100 | 4.06 | > 100 | 8.75 µM and 3.31 µM | > 100 | 7.63 µM and 2.17 µM | > 100 | 12.8 µM and 1.32 µM | 31.1 µM and 3.56 µM
3 | COc1ccc(-c2cc(=O)n(-c3nc4ccccc4[nH]3)[nH]2)cc1OC | 3.91 µM | 68.3 | 4 µM | 66.6 | 3.87 µM | > 100 | 6.4 | 61 | 13.9 µM | > 100 | 6.36 µM | 48.9 | 4.77 | 23.6 |  |  | 4.43 µM | 63.5 | 4.08 µM | 34.9 µM
4 | CCCCC(SC(=S)N1CCCC1)C(=O)Nc1nc(CC(=O)OCC)cs1 (stereo unspecified) |  |  | > 100 µM | > 100 | 35.4 µM | > 100 | 47.9 | > 100 | 67.4 µM | > 100 | 72.4 µM | > 100 | 36.1 | > 100 |  |  | 40.1 µM | > 100 | 13.1 µM | 45.6 µM
5 | O=C(Oc1cccc(Cl)c1)c1ccccc1Nc1ccnc(C(F)(F)F)c1 | 11.2 µM | 43.7 | 20.8 µM | 61 | 3.04 µM | 10.7 |  |  |  |  | 2.79 µM | 7.24 | 15.7 | > 100 | 2.41 µM | 8.26 | 3.52 µM | 18.1 | 2.59 µM | 6.73 µM
6 | COC(C)(C)[C@@H](O)[C@H](O)C[C@H](C)C1=C2CC[C@@H]3[C@@]4(C)CC[C@@H](OC(C)=O)C(C)(C)[C@@H]4C[C@@H](OC4OC(COC(C)=O)C(O)C(O)C4O)[C@@]3(C)[C@]2(C)CC1 (stereo partly specified) | 9.06 µM | 25.5 | 11.8 µM | 28.3 | 12.3 µM | 25.6 | 12.6 | 25.4 | 11.7 µM | 24.2 |  |  | 13.2 | 26 | 14.4 µM | 27.4 | 12.8 µM | 26.3 | 14.4 µM | 27.8 µM
7 | CC1=CC2C(C(O)CC3(C)C2CC(C)C32OCOC23COCO3)C2(C)C/C(=C/O)C(=O)C=C12 (stereo unspecified) |  |  | 2.28 µM | 5.72 | 1.78 µM | 3.64 | 1.82 | 3.86 | 1.87 µM | 3.51 | 1.93 µM | 3.64 | 1.97 | 3.8 | 2 µM | 3.83 | 1.76 µM | 3.73 | 1.74 µM | 3.16 µM
